Measured values taken from US9732367B2, “Cell lines” (MEDIMMUNE LIMITED, priority 2012, dated 2017).

How the values were obtained:
[1] = test system: CHO cells stably expressing pylRS and tRNApyl and an IgG directed against her2/neu containing an amber codon; assay: Growth and viability of pylRS/tRNApyl cell line treated with lys azide and dnnAA; type: cell-based; details: 0.5 mM lys azide alone
From the text: To examine whether the dnnAAs of the invention could function to improve the viability of cells containing pylRS and tRNApyl we monitored the growth and viability of a cell line, stably expressing pylRS and tRNApyl. For this assay CHO cells stably expressing pylRS and tRNApyl and an IgG directed against her2/neu containing an amber codon in the heavy chain, shown to effectively incorporate nnAA into the expressed IgG thus producing an antibody containing a nnAA, were used for this experiment. Despite a high expression level of pylRS/tRNApyl pair, this cell line has very robust cell growth characteristics when grown in medium lacking nnAA. The presence of a highly expressed target containing an amber codon likely has a protective effect on the cells by supplying them with high levels of amber codons that absorb the amber suppression activity and protects the cells from the effects of background amber suppression at essential genes. However, upon addition of the nnAA (lys-azide) to the growth medium, and activation of the amber suppression machinery, a decrease in cell growth rate is observed. […] To determine whether a dnnAA can rescue this effect, cells cultured in serum free medium were grown to a cell density of 0.5×10^6 cells/mL and subsequently treated with 0.5 mM lys azide alone or in combination with 2 Mm dnnAA. Cell viability and cell numbers were monitored daily over seven days. Cells treated with lys azide alone reached a cell density just below 1×10^6 cells/mL on day 3 after nnAA addition and remained at this density for the remainder of the assay (seven days) (FIG. 15A) The lack of growth was not likely due to loss of viability as the culture retained high viability throughout the experiment (˜70% viable cells) (FIG. 15B) Cultures treated with 2 mM Compound of formula VIIB.4, or 2 mM Formula VIIB.1 in combination with 0.5 mM lys-azide supported continued growth of the culture that reached over 1.5×10^6 cells/mL and retained a cell viability of 90%.

pylRS/tRNA pair = target: T1, pylRS/tRNA pair (Methanosarcina mazei, UniProt Q8PWY1); assay: GFP assay: translational testing of pyrrolysine analogs as nnAAs; type: cell-based; details: nnAA 2 mM, 2-3 days
T1 construct: expressed in transfected cells; host or cells: HEK293 clone 3H7
From the text: An in vitro cell based assay was developed to assess the compatibility of the pylRS/tRNA pair and the pyrrolysine analogs of the present invention (nnAAs) by and the efficiency of nnAAs integration into a target protein. For this, HEK293 cells stably expressing pylRS (3H7) were transiently transfected with plasmids for the expression of tRNApyl and a reporter construct encoding GFPY40 (containing amber codon in place of tyrosine at amino acid residue number 40 (where 1 is the initiator methionine)) using standard transfection protocols. Transfected cells were incubated with nnAAs at 2 mM for 2-3 days GFP production was analyzed qualitatively by visual inspection under the microscope. The GFP fluorescence was quantified by flow cytometry using an Accuri flow cytometer and the geometric mean of the fluorescent cells determined.
This cell based assay was used to determine whether the different nnAAs were suitable substrates for the pylRS and allowed its translation into a target protein. Cells expressing the PylRS/tRNApyl pair and containing a vector encoding the GFPY40 reporter gene were incubated in the presence of the nnAAs. nnAAs that are readily utilized by the PylRS/tRNApyl pair support the translation of the nnAA into the amber site of GFP and allow read-through of the gene producing full length GFP (fluorescent protein). The fluorescence intensity of the cells depends on the efficiency of nnAA incorporation. Thus, nnAAs that are poorly utilized produce weakly fluorescent or non-fluorescing cells. […] Furthermore, the relative expression levels in each sample was compared to those generated by substrates known to be efficiently utilized by pylRS.

[2] = Formula V analogs, geometric mean

T1 sequence (Q8PWY1 whole entry): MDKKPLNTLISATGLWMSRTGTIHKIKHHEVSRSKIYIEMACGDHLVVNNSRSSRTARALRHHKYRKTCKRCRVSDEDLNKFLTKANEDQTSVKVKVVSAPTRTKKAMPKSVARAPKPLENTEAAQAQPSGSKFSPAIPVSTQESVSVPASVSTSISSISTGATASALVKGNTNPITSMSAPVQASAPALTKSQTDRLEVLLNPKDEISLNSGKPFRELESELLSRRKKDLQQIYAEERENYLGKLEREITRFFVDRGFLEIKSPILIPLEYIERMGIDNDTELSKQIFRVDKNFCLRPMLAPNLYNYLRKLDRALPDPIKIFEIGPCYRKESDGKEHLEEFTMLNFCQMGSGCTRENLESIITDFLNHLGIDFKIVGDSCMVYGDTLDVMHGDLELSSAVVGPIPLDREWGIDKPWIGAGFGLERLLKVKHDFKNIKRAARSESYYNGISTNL

| Structure (SMILES) | Positive GFP (pylRS/tRNA pair; Formula V analogs) | MFI (pylRS/tRNA pair; [2]) | Positive GFP Assay (pylRS/tRNA pair; Formula VI analogs) | other results |
| --- | --- | --- | --- | --- |
| [N-]=[N+]=NCCOC(=O)NCCCC[C@H](N)C(=O)O [Formula V.1, (2S)-2-amino-6-{[(2-azidoethoxy)carbonyl]amino}hexanoic acid] | Yes | 931,289 | – | viable cells [1]: ~70%; cell density ([1]; day 3 to day 7): below 1 ×10^6 cells/mL; MFI (pylRS/tRNA pair; Formula V analogs, geometric mean, listed as V.1): 931289 |
| C=CCNC(=O)OCCCC[C@H](N)C(=O)O [Formula VI.3, (2S)-2-amino-6-{[(prop-2-en-1-yl)carbamoyl]oxy}hexanoic acid] | – | – | incorporated in the GFP reporter gene and yield green cells and Yes | – |
| C#CCOC(=O)NCCCC[C@H](N)C(=O)O [Formula V.2, (2S)-2-amino-6-{[(prop-2-yn-1-yloxy)carbonyl]amino}hexanoic acid] | Yes | 1,676,250 | – | MFI (pylRS/tRNA pair; Formula V analogs, geometric mean, listed as V.2): 1676250 |
| [N-]=[N+]=NCCNC(=O)OCCCC[C@H](N)C(=O)O [Formula VI.1, (2S)-2-amino-6-{[(2-azidoethyl)carbamoyl]oxy}hexanoic acid] | – | – | incorporated in the GFP reporter gene and yield green cells and Yes | MFI (pylRS/tRNA pair; Formula VI analogs): 904206 |
